This passage reports IC50 and Ki results from ChEMBL document CHEMBL1909046, “DrugMatrix in vitro pharmacology data”.

Series [1] has as its target Cytochrome P450 2C19 (Homo sapiens, UniProt P33261). As to conditions: bti-tn-5b1-4. Note: in other assays of this panel Not Active means under 50% inhibition at 10 µM.
Series [2] has as its target T1, Progesterone receptor (Bos taurus, UniProt Q690N0).
T1 sequence (Q690N0 whole entry): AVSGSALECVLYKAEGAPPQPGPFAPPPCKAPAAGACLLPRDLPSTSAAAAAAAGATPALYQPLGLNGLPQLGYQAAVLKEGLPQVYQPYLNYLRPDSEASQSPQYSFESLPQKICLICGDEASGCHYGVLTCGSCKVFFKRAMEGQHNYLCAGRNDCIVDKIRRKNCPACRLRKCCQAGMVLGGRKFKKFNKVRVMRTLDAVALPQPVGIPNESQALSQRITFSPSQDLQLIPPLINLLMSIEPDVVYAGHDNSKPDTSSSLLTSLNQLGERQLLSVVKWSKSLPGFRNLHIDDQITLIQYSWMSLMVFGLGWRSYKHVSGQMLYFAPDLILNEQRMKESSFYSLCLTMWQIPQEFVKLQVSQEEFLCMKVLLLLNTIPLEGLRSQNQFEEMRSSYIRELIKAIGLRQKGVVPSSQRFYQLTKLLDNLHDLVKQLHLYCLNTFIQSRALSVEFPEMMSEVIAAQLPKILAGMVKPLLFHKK
In words: DRUGMATRIX: Progesterone radioligand binding (ligand: [3H] R-5020). To be noted: Not Active = under 50% inhibition at 10 µM. The format is tissue-based, Uterus.

Series [3] addresses T2, 3-hydroxy-3-methylglutaryl-coenzyme A reductase (Homo sapiens, UniProt P04035).
T2 sequence (P04035 whole entry): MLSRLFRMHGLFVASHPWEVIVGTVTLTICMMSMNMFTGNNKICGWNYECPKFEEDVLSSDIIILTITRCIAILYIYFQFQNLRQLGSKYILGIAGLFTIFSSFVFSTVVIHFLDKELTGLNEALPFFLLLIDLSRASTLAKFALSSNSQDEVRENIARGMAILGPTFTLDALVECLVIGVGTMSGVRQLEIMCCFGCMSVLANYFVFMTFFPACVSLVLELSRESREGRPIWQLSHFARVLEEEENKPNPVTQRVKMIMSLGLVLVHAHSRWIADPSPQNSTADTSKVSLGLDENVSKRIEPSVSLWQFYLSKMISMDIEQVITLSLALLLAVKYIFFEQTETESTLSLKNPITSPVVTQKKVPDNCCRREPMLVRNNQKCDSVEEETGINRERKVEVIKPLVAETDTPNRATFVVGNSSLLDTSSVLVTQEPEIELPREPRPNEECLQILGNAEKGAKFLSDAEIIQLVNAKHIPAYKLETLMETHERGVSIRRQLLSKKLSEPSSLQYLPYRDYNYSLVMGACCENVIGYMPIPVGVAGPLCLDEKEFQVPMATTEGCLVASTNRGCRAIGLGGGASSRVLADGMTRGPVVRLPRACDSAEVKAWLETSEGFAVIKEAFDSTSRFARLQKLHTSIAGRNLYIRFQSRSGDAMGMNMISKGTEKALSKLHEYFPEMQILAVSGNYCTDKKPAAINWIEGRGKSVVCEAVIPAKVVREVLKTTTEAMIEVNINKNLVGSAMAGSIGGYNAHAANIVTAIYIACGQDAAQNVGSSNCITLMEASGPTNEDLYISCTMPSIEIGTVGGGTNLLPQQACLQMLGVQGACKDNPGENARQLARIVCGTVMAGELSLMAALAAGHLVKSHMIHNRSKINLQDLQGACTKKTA
The arrangement: species or system Escherichia coli.

The target of series [4] is T3, Cholecystokinin receptor type A (Homo sapiens, UniProt P32238). Note: in other assays of this panel Not Active means under 50% inhibition at 10 µM.
T3 sequence (P32238 whole entry): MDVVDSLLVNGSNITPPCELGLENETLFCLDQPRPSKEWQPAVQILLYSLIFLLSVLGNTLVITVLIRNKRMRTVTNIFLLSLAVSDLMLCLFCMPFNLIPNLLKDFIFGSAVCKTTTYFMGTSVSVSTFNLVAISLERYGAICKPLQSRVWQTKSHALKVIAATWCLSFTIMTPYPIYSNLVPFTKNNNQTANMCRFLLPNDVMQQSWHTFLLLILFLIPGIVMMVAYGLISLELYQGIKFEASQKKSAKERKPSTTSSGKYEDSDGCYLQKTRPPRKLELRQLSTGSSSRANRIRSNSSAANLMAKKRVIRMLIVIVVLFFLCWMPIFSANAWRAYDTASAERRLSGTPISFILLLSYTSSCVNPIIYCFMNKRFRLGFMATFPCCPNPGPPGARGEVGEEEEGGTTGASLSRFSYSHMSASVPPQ
The format is cell membranes, Membrane. To be noted: 1321-n1.

The nature of series [5]: DRUGMATRIX: Potassium Channel [KATP] radioligand binding (ligand: [3H] Glyburide). Type of series: cell membranes, Membrane. To be noted: hit-t15; Not Active = under 50% inhibition at 10 µM.
Series [6] has as its target Vascular endothelial growth factor receptor 1 (Homo sapiens, UniProt P17948). The format is cell-based. As to conditions: huvec. Note: in other assays of this panel Not Active means under 50% inhibition at 10 µM.
Series [7] addresses Sigma non-opioid intracellular receptor 1 (Homo sapiens, UniProt Q99720). In words: DRUGMATRIX: Sigma1 radioligand binding (ligand: [3H] Haloperidol). The format is cell membranes, Jurkat, Membrane. To be noted: Not Active = under 50% inhibition at 10 µM.
The target of series [8] is Epidermal growth factor receptor (Homo sapiens, UniProt P00533). In words: DRUGMATRIX: Protein Tyrosine Kinase, EGF Receptor enzyme inhibition (substrate: Poly(Glu:Tyr)). As to conditions: insect cells; Not Active = under 50% inhibition at 10 µM. The format is cell-based, Insect cells.
The target in series [9] is T4, Neutrophil elastase (Homo sapiens, UniProt P08246).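 Note: inhibition of neutrophil elastase enzyme activity, measured with a p-nitroanilide-linked peptide substrate; in other assays of this panel Not Active means under 50% inhibition at 10 µM.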
T4 sequence (P08246 whole entry): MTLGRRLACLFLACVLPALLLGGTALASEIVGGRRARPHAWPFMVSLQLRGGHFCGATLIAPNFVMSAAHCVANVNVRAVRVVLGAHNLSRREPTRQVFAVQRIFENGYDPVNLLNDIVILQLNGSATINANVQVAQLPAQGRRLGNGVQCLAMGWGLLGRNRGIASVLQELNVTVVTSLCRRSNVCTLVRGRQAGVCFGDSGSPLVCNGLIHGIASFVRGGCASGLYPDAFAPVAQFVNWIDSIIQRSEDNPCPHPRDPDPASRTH
The format is tissue-based.

Vascular endothelial growth factor receptor 1, sequence (P17948 whole entry): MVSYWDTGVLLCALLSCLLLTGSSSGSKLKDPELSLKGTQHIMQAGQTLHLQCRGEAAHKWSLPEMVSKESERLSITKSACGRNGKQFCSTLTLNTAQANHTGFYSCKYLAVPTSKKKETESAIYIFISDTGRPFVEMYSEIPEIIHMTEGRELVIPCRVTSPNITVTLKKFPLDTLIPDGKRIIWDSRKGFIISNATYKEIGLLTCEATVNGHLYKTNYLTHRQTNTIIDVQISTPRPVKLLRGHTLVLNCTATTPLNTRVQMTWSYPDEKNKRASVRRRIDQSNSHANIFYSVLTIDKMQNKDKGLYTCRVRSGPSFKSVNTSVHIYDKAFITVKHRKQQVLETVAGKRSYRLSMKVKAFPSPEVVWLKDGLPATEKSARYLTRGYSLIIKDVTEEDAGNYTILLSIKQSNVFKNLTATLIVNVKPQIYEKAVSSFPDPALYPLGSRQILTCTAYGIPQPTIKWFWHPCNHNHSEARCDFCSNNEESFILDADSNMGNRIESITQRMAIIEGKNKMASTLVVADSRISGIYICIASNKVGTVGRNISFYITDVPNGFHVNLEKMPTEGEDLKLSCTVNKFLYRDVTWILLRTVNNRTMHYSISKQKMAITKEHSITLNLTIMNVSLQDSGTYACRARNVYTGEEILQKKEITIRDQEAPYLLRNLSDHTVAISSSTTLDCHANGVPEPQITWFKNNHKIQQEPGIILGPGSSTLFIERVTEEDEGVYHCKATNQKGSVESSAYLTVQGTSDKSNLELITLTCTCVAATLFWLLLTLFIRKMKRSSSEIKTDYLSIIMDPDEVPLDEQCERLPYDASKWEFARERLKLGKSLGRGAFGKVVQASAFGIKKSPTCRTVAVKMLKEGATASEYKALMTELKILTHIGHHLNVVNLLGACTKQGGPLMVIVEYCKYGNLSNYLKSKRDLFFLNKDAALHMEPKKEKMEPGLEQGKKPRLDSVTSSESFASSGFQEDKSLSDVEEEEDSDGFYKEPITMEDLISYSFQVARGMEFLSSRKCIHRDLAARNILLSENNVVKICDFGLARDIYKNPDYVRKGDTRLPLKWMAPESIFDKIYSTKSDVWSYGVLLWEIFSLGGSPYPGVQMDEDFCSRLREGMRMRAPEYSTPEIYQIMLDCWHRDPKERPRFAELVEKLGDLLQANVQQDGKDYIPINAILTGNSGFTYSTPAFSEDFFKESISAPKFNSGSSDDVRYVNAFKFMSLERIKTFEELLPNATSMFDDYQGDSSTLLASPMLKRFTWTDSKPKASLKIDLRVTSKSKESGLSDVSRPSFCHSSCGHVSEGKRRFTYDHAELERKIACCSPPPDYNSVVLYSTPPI
Cytochrome P450 2C19, sequence (P33261 whole entry): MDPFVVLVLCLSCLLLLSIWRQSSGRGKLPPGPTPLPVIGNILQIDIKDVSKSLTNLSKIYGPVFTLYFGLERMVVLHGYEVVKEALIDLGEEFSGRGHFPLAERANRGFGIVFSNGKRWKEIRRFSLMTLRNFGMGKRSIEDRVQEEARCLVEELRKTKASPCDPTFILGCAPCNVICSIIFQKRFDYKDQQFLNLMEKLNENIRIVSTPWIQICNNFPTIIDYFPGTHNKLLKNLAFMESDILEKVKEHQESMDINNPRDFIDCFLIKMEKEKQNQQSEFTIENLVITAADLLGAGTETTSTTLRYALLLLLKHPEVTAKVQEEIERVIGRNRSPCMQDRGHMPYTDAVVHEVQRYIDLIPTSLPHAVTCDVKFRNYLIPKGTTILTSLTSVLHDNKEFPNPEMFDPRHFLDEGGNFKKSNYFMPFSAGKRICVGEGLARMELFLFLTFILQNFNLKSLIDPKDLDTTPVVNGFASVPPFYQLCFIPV
Sigma non-opioid intracellular receptor 1, sequence (Q99720 whole entry): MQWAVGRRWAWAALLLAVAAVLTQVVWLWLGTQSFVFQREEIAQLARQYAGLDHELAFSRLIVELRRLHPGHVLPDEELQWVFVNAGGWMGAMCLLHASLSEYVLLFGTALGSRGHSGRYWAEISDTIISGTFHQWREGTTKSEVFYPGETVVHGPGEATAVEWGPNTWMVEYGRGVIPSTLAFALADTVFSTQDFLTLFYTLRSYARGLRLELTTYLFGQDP

By IC50 is commonly meant the concentration that gives 50% inhibition. By Ki is commonly meant a dissociation constant, usually derived from enzyme kinetics or from competition with a known ligand. With `Fc1ccc([C@@H]2CCNC[C@H]2COc2ccc3c(c2)OCO3)cc1` [PAROXETINE], the IC50 result in series [1], in [2], in [3], in [4], in series [5] and in series [6] was “Not Active” throughout. Besides, the values for the IC50 in series [7] (read-out: IC50), in series [8] and in series [9] were 5.37 µM, “Not Active” and “Not Active”, respectively. Moreover, the results for the Ki result in [1], in [5] and in series [7] (read-out: Ki) were “Not Active”, “Not Active” and 2.26 µM, respectively.
For the molecule `CC(C)(S)[C@@H](N)C(=O)O` [PENICILLAMINE], the IC50 result in [1], in series [2], in series [3], in series [4], in [5] and in series [6] was “Not Active” in each case. The IC50 result in series [7] (jurkat), in [8] and in series [9] was “Not Active” throughout. For the same molecule, the Ki entry in [1] and in [5] was “Not Active” each time.
Consider `CC(=O)CCCCn1c(=O)c2c(ncn2C)n(C)c1=O` [PENTOXIFYLLINE], for which the IC50 result in series [1], in series [2], in series [3], in series [4], in series [5] and in series [6] was “Not Active” throughout. For the same molecule, the IC50 result in [7] (jurkat), in [8] and in series [9] was “Not Active” each time. Besides, the Ki entry in [1] and in [5] was “Not Active” in each case.
Turning to `O=C1NC(=O)C(c2ccccc2)(c2ccccc2)N1` [PHENYTOIN], the IC50 entry in [1], in [2], in series [3], in series [4], in series [5] and in series [6] was “Not Active” in each case. Further, the IC50 entry in series [7] (jurkat), in series [8] and in [9] was “Not Active” throughout. Further, the inhibition constant (Ki) entry in [1] and in [5] was “Not Active” in each case.
In the case of `CNC(=O)Oc1ccc2c(c1)[C@]1(C)CCN(C)[C@@H]1N2C` [PHYSOSTIGMINE], the IC50 entry in [1], in [2], in series [3], in series [4], in series [5] and in series [6] was “Not Active” in each case. In addition, the IC50 entry in series [7] (jurkat), in [8] and in series [9] was “Not Active” throughout. The Ki result in series [1] and in [5] was “Not Active” each time.
For the molecule `CN1C(C(=O)Nc2ccccn2)=C(O)c2ccccc2S1(=O)=O` [PIROXICAM], the IC50 result in series [1], in series [2], in [3], in series [4], in series [5] and in series [6] was “Not Active” in each case. Further, the IC50 entry in series [7] (jurkat), in series [8] and in series [9] was “Not Active” each time. In addition, the Ki entry in series [1] and in series [5] was “Not Active” throughout.
`CCC1(c2ccccc2)C(=O)NCNC1=O` [PRIMIDONE]: the IC50 entry in series [1], in [2], in series [3], in [4], in [5] and in [6] was “Not Active” throughout. Further, the IC50 entry in series [7] (jurkat), in series [8] and in series [9] was “Not Active” in each case. Besides, the Ki entry in series [1] and in series [5] was “Not Active” in each case.
Take `CCCc1cc(=O)[nH]c(=S)[nH]1` [PROPYLTHIOURACIL]: the IC50 entry in series [1], in series [2], in [3], in series [4], in [5] and in [6] was “Not Active” each time. Besides, the IC50 entry in series [7] (jurkat), in series [8] and in series [9] was “Not Active” in each case. Further, the Ki entry in series [1] and in series [5] was “Not Active” in each case.
Take `COc1ccc(CN(CCN(C)C)c2ccccn2)cc1` [PYRILAMINE]: the IC50 result in series [1], in [2], in series [3], in series [4], in [5] and in series [6] was “Not Active” each time. The IC50 is 1.56 µM in series [7] (read-out: IC50), “Not Active” in [8] and “Not Active” in series [9]. Also, the Ki result in series [1] was “Not Active”; in series [5], “Not Active”; in series [7] (read-out: Ki) it was 0.655 µM.
For the molecule CARBOPLATIN, the IC50 entry in series [1], in [2], in series [3], in series [4], in [5] and in series [6] was “Not Active” each time. Also, the IC50 entry in [7] (jurkat), in series [8] and in series [9] was “Not Active” throughout. In addition, the Ki entry in series [1], in [2], in [3], in [4], in series [5] and in [6] was “Not Active” throughout. Further, the Ki entry in series [7] (jurkat), in series [8] and in series [9] was “Not Active” throughout.
